This data set deals with rodent lifetime carcinogenesis bioassay, tumor incidence TD50. As to the kind of experiment: chronic cancer bioassays in animals – CPDB, compiled studies (AID 1745844).

The values below come from PubChem BioAssay AID1745844 (Carcinogenic Potency Database (CPDB), 2022).

SMILES strings stand for the structures. Calls of active or inactive are those of the source. The rule behind the calls is not given here.

Usually TD50 stands for the 50% point of the dose-response relation for the toxic effect studied. Take `CC(O)CN(C)c1ccc(NN)nn1` (centres undefined): the TD50 is 503 mg/kg/day (inactive) (mouse, strain B6C3F1, females, in drinking water, site: liver, lesion: several types, types named in the paper, dosed 80 weeks, study length 123 weeks); 922 mg/kg/day (inactive) (mouse, strain B6C3F1, males, in drinking water, site: liver, lesion: several types, types named in the paper, dosed 80 weeks, study length 123 weeks); 408 mg/kg/day (inactive) (mouse, strain BALB/cLacDp, females, in drinking water, site: all sites, lesion: lymphoma, dosed 80 weeks, study length 123 weeks). For the same molecule, the carcinogen call is, setting by setting: (mouse, strain B6C3F1, females, in drinking water, site: lung, lesion: several types, types named in the paper, dosed 80 weeks, study length 123 weeks) “negative (inactive)”; (mouse, strain B6C3F1, males, in drinking water, site: lung, lesion: several types, types named in the paper, dosed 80 weeks, study length 123 weeks) “negative (inactive)”; (mouse, strain BALB/cLacDp, females, in drinking water, site: liver, lesion: hepatocellular adenoma, dosed 80 weeks, study length 123 weeks) “negative (inactive)”; (mouse, strain BALB/cLacDp, females, in drinking water, site: lung, lesion: several types, types named in the paper, dosed 80 weeks, study length 123 weeks) “negative (inactive)”.
As to `CNC[C@H](O)c1cccc(O)c1`, the TD50 (mouse, strain B6C3F1, females, in feed, site: any site (literature study), lesion: several types, types named in the paper, dosed 103 weeks, study length 104 weeks) was 911 mg/kg/day (inactive); the TD50 (mouse, strain B6C3F1, females, in feed, site: liver, lesion: hepatocellular adenoma + hepatocellular carcinoma + neoplastic nodule, dosed 103 weeks, study length 104 weeks) was found to be 7850 mg/kg/day; the TD50 (mouse, strain B6C3F1, females, in feed, site: lung, lesion: alveolar/bronchiolar adenoma + alveolar/bronchiolar carcinoma, dosed 103 weeks, study length 104 weeks) worked out at 1610 mg/kg/day; the TD50 (mouse, strain B6C3F1, males, in feed, site: any site (literature study), lesion: several types, types named in the paper, dosed 103 weeks, study length 104 weeks) was 6330 mg/kg/day; the TD50 (mouse, strain B6C3F1, males, in feed, site: liver, lesion: hepatocellular adenoma + hepatocellular carcinoma + neoplastic nodule, dosed 103 weeks, study length 104 weeks) was determined as 4270 mg/kg/day; the TD50 (mouse, strain B6C3F1, males, in feed, site: lung, lesion: alveolar/bronchiolar adenoma + alveolar/bronchiolar carcinoma, dosed 103 weeks, study length 104 weeks) was determined as 2130 mg/kg/day. The TD50 runs as follows: (mouse, strain B6C3F1, males, in feed, site: multiple organs + spleen, lesion: malignant lymphoma, mixed type, dosed 103 weeks, study length 104 weeks) 1720 mg/kg/day; (mouse, strain B6C3F1, males, in feed, site: subcutaneous tissue, lesion: fibrosarcoma, dosed 103 weeks, study length 104 weeks) 1640 mg/kg/day (inactive); (rat, strain Fischer 344, females, in feed, site: any site (literature study), lesion: several types, types named in the paper, dosed 103 weeks, study length 104 weeks) 272 mg/kg/day (inactive). Besides, the carcinogen call (rat, strain Fischer 344, males, in feed, site: any site (literature study), lesion: several types, types named in the paper, dosed 103 weeks, study length 104 weeks) is “negative (inactive)”.
On to `COc1cccc(O)c1O`, for which the TD50 was 425 mg/kg/day (rat, strain F344/DuCrj, males, in feed, site: forestomach, lesion: squamous-cell papilloma, dosed 51 weeks, study length 51 weeks) and 48.7 mg/kg/day (rat, strain F344/DuCrj, males, in feed, site: stomach, glandular, lesion: adenoma, dosed 51 weeks, study length 51 weeks).
